Source: PMC5862592, “CDK8/19 inhibition induces premature G1/S transition and ATR-dependent cell death in prostate cancer cells” (Oncotarget, 2018)
Like-named read-outs stand apart in the source and are kept apart here.

Key:
Assay in all cases: biochemical
Parameters in all cases: KINOMEscan active site-directed competition binding assay (DiscoveRx), 456 kinases, per cent of control at 300 nM
Conditions in all cases: read-out: Percent of Control (%)
[1] = target: T1, ABL1(M351T)-phosphorylated (Homo sapiens, UniProt P00519, M351T)
T1 construct: phosphorylated
Method in brief: (§1)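 Active site-directed competition binding (KINOMEscan) across a 456-kinase panel, compounds tested at 300 nmol/L.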

[2] = target: ALK(L1196M) (Homo sapiens, UniProt Q9UM73, L1196M)
Method in brief: as §1

[3] = target: ANKK1 (Homo sapiens, UniProt Q8NFD2)
ANKK1, sequence (Q8NFD2 whole entry): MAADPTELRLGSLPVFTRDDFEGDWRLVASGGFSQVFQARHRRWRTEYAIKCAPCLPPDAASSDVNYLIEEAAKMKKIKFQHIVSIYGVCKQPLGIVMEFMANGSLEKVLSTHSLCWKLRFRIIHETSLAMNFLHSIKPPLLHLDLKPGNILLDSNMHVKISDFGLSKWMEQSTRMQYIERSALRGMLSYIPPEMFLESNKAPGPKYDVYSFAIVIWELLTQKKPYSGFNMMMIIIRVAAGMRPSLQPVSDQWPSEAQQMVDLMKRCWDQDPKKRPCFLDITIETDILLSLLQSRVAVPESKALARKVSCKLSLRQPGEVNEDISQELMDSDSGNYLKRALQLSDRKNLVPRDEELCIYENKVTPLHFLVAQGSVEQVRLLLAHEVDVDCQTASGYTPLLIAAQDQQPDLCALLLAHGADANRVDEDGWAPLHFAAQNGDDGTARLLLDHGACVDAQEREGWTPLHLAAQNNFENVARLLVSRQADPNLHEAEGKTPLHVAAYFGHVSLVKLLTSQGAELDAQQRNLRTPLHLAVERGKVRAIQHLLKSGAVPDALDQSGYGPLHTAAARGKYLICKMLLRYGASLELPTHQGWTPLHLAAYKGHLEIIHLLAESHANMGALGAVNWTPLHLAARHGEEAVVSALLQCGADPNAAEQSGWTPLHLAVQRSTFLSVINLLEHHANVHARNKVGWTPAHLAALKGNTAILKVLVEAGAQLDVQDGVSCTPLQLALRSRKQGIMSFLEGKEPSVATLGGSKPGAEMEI
Method in brief: as §1

[4] = target: T2, ARK5 (Homo sapiens, UniProt O60285)
T2 construct: gene NUAK1
Method in brief: as §1

[5] = target: T3, CDC2L5 (Homo sapiens, UniProt Q14004)
T3 construct: gene CDK13
Method in brief: as §1

[6] = target: CSF1R-autoinhibited (Homo sapiens, UniProt P07333)
CSF1R-autoinhibited, sequence (P07333 whole entry): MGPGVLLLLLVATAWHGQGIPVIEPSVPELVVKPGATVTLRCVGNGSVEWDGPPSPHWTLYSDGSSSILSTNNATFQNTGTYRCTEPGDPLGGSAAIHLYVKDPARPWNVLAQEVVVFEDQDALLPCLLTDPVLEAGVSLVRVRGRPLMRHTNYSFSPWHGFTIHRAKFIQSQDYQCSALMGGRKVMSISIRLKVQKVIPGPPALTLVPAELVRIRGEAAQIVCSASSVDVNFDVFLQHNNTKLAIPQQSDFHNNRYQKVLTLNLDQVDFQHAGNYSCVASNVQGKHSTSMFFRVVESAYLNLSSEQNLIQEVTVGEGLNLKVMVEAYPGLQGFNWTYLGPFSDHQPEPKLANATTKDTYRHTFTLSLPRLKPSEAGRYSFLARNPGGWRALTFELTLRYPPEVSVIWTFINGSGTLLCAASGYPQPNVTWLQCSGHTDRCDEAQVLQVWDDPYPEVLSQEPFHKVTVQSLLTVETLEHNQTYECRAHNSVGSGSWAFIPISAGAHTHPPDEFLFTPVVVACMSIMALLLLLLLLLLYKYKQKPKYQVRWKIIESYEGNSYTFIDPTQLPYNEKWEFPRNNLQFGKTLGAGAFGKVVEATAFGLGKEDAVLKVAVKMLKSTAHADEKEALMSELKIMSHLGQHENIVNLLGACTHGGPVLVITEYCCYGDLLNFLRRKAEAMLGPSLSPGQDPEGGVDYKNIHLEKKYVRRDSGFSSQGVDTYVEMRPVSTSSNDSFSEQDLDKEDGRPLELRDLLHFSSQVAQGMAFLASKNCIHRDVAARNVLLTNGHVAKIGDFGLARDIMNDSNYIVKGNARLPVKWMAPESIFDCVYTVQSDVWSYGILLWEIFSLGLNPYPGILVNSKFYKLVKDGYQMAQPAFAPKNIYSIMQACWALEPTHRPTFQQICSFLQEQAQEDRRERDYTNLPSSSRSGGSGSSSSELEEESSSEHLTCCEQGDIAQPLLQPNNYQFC
Method in brief: as §1

[7] = target: CSK (Homo sapiens, UniProt P41240)
Method in brief: as §1

[8] = target: CSNK2A2 (Homo sapiens, UniProt P19784)
CSNK2A2, sequence (P19784 whole entry): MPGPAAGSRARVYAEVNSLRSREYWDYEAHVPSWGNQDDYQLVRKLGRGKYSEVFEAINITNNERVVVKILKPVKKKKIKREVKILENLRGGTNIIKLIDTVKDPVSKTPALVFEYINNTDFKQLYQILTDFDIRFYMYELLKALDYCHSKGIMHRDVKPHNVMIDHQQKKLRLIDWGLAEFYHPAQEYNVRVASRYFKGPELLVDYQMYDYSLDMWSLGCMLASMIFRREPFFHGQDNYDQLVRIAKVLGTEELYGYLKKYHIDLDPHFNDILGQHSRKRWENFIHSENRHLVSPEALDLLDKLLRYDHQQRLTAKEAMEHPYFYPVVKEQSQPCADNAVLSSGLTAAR
Method in brief: as §1

[9] = target: T4, DCAMKL1 (Homo sapiens, UniProt O15075)
T4 construct: gene DCLK1
Method in brief: as §1

[10] = target: ERN1 (Homo sapiens, UniProt O75460)
Method in brief: as §1

[11] = target: FLT3(K663Q) (Homo sapiens, UniProt P36888, K663Q)
Method in brief: as §1

[12] = target: T5, ICK (Homo sapiens, UniProt Q9UPZ9)
T5 construct: gene CILK1
Method in brief: as §1

[13] = target: IGF1R (Homo sapiens, UniProt P08069)
Method in brief: as §1

[14] = target: KIT(V559D) (Homo sapiens, UniProt P10721, V559D)
Method in brief: as §1

[15] = target: T6, LOK (Homo sapiens, UniProt O94804)
T6 construct: gene STK10
T6 sequence (O94804 whole entry): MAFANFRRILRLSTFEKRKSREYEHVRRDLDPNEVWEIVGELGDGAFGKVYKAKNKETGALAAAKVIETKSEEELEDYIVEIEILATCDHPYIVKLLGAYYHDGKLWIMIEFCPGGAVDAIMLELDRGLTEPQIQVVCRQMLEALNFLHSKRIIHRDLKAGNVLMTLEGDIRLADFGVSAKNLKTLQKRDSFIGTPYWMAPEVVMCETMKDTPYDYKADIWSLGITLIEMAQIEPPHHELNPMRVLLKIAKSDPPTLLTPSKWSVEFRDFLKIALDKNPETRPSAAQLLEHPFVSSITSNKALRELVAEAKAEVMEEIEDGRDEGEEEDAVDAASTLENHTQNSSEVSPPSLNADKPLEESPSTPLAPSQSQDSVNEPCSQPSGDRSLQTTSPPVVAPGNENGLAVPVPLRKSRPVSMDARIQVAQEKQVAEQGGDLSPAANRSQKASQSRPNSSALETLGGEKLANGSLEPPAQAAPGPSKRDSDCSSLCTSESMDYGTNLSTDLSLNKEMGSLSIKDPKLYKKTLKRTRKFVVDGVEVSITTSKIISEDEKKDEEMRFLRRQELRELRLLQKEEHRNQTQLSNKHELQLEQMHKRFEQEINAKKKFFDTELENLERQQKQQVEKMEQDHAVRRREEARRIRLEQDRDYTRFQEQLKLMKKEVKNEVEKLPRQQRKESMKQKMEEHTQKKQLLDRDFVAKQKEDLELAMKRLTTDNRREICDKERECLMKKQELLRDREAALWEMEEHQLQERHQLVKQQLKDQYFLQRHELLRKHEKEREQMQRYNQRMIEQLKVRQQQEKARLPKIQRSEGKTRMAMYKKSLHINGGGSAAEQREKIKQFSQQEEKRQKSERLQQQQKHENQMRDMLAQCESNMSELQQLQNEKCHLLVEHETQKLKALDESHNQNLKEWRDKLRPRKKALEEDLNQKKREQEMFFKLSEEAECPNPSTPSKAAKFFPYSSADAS
Method in brief: as §1

[16] = target: MARK1 (Homo sapiens, UniProt Q9P0L2)
MARK1, sequence (Q9P0L2 whole entry): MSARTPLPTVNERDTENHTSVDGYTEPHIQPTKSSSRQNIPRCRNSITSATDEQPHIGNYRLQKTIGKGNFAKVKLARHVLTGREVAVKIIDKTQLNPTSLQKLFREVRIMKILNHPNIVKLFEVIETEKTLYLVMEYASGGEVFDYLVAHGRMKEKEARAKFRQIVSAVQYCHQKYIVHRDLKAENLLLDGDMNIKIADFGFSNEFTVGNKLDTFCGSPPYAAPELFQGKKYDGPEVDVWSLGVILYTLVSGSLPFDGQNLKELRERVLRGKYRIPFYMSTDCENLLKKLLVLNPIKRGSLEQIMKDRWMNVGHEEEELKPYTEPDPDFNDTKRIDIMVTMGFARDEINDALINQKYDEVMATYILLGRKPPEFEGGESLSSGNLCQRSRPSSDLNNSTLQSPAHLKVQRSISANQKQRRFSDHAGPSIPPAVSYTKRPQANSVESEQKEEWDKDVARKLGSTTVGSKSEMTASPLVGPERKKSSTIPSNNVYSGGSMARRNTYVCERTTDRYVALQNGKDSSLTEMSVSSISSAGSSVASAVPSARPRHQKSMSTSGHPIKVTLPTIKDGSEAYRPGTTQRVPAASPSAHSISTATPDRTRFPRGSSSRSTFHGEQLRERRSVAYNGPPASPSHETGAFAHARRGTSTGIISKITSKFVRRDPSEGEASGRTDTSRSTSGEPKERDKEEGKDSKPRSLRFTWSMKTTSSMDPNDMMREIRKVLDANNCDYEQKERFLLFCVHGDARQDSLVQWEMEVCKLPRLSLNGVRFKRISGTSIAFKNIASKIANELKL
Method in brief: as §1

[17] = target: MARK2 (Homo sapiens, UniProt Q7KZI7)
Method in brief: as §1

[18] = target: MERTK (Homo sapiens, UniProt Q12866)
Method in brief: as §1

[19] = target: PAK2 (Homo sapiens, UniProt Q13177)
PAK2, sequence (Q13177 whole entry): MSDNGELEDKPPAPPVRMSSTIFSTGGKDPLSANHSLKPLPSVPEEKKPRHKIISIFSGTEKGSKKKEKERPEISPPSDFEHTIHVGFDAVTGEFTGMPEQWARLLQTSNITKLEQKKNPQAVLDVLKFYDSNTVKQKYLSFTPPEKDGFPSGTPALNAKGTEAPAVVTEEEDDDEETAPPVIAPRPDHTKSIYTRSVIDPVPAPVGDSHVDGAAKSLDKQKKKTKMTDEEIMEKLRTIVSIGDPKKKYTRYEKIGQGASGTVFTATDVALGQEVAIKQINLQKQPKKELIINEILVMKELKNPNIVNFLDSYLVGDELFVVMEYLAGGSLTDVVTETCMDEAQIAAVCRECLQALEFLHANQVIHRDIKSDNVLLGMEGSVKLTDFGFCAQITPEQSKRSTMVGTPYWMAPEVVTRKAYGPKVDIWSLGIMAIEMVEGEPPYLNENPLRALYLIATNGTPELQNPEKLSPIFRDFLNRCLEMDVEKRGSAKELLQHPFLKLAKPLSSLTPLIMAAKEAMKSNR
Method in brief: as §1

[20] = target: PAK6 (Homo sapiens, UniProt Q9NQU5)
PAK6, sequence (Q9NQU5 whole entry): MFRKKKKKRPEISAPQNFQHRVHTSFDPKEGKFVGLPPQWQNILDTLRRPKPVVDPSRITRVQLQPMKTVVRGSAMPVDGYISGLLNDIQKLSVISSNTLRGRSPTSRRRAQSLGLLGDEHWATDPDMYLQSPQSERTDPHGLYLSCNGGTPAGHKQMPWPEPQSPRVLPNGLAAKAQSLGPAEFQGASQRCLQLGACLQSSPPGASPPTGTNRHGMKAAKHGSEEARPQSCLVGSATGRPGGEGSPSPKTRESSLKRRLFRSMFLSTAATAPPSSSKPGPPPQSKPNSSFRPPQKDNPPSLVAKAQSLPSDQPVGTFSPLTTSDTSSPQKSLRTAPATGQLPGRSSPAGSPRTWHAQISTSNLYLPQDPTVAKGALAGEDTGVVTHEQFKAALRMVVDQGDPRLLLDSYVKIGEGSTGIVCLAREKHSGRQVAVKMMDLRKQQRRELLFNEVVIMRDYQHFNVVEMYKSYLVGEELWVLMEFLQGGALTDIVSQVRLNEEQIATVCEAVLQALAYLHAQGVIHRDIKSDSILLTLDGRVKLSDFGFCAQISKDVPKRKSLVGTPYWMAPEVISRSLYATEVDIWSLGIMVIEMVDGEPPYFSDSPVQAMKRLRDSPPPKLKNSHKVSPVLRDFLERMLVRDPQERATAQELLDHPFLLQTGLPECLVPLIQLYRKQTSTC
Method in brief: as §1

[21] = target: T7, RSK4(Kin.Dom.1-N-terminal) (Homo sapiens, UniProt Q9UK32)
T7 construct: gene RPS6KA6; Kin.Dom.1-N-terminal
Method in brief: as §1

O=C(/C=C/c1cnccc1-c1ccc(F)cc1)Nc1ccc(CCc2nnco2)cc1 [T-418, (2E)-3-(4-(4-fluorophenyl)pyridin-3-yl)-N-(4-(2-(1,3,4-oxadiazol-2-yl)ethyl)phenyl)acrylamide]
remaining binding at 0.3 µM ([1]; sheet T-418): 100% | remaining binding at 0.3 µM ([2]; sheet T-418): 100% | remaining binding at 0.3 µM ([3]; sheet T-418): 89% | remaining binding at 0.3 µM ([4]; sheet T-418): 100% | remaining binding at 0.3 µM ([5]; sheet T-418): 87% | remaining binding at 0.3 µM ([6]; sheet T-418): 86% | remaining binding at 0.3 µM ([7]; sheet T-418): 86% | remaining binding at 0.3 µM ([8]; sheet T-418): 100% | remaining binding at 0.3 µM ([9]; sheet T-418): 52% | remaining binding at 0.3 µM ([10]; sheet T-418): 100% | remaining binding at 0.3 µM ([11]; sheet T-418): 100% | remaining binding at 0.3 µM ([12]; sheet T-418): 100% | remaining binding at 0.3 µM ([13]; sheet T-418): 87% | remaining binding at 0.3 µM ([14]; sheet T-418): 100% | remaining binding at 0.3 µM ([15]; sheet T-418): 93% | remaining binding at 0.3 µM ([16]; sheet T-418): 100% | remaining binding at 0.3 µM ([17]; sheet T-418): 100% | remaining binding at 0.3 µM ([18]; sheet T-418): 100% | remaining binding at 0.3 µM ([19]; sheet T-418): 70% | remaining binding at 0.3 µM ([20]; sheet T-418): 85% | remaining binding at 0.3 µM ([21]; sheet T-418): 100%

Cc1ncccc1Oc1sc(C(N)=O)c2c1-c1c(cnn1C)CC2 [T-474, 1-methyl-8-((2-methylpyridin-3-yl)oxy)-4,5-dihydro-1H-thieno[3,4-g]indazole-6-carboxamide]
remaining binding at 0.3 µM [1]: 100% | remaining binding at 0.3 µM [2]: 100% | remaining binding at 0.3 µM [3]: 100% | remaining binding at 0.3 µM [4]: 100% | remaining binding at 0.3 µM [5]: 86% | remaining binding at 0.3 µM [6]: 100% | remaining binding at 0.3 µM [7]: 86% | remaining binding at 0.3 µM [8]: 100% | remaining binding at 0.3 µM [9]: 69% | remaining binding at 0.3 µM [10]: 89% | remaining binding at 0.3 µM [11]: 100% | remaining binding at 0.3 µM [12]: 100% | remaining binding at 0.3 µM [13]: 98% | remaining binding at 0.3 µM [14]: 100% | remaining binding at 0.3 µM [15]: 100% | remaining binding at 0.3 µM [16]: 81% | remaining binding at 0.3 µM [17]: 100% | remaining binding at 0.3 µM [18]: 100% | remaining binding at 0.3 µM [19]: 88% | remaining binding at 0.3 µM [20]: 89% | remaining binding at 0.3 µM [21]: 100%
